One may read the IC50 as the concentration that inhibits the measured activity by half.

In patent US9890176B2, “Mannose derivatives for treating bacterial infections” (Vertex Pharmaceuticals Incorporated, priority 2013, dated 2018) one finds IC50 data, which are given here for 38 compounds.

The test system of this experiment is bacterial strain LF82 binding to the glycoprotein BSA-(Mannose)3. Briefly: Bacterial Binding Assay (BBA). The format is cell-based, Escherichia coli. The following applies: read-out: Bacterial Binding Assay IC50. From the text: The purpose of the Bacterial Binding Assay (BBA) is to determine the inhibition activity of selective FimH antagonists on the bacterial strain LF82 binding to the glycoprotein BSA-(Mannose)3.
Below is a list of the Materials used to run the BBA are described below. • 1. LB broth: Supplier: Gibco, #10855 • 2. D-PBS: Supplier: Wisent, #311-425-CL • 3. LB agar plates • 4. 96-well black plate (high binding): Supplier: Costar, #3925 • 5. TopSeal™-A adhesive sealing films; Supplier PerkinElmer, #6005185 • 6. Carbonate-bicarbonate buffer pH 9.6 tablets, Supplier: Medicago, #09-8922-24 • 7. Water, Supplier: Gibco, #15230-162 • 8. Bovine serum albumin (BSA): Supplier: Sigma, #A-7888 • 9. (Man)-3-BSA (α1-3, α1-6 Mannotriose-BSA, 1 mg), V-Labs, #NGP1336, lot#HGDX37-169-1 • 10. Tween 20: Supplier: Sigma, #P9416 • 11. Bright-Glo Luciferase Assay System: Supplier: Promega, #E2610 • 12. LF82/Luciferase strain: Invasive ability of an Escherichia coli strain isolated from the ileal mucosa of a patient with Crohn's disease. Boudeau J, Glasser A L, Masseret E, Joly B, Darfeuille-Michaud A, Infect Immun. 1999, 67(9), 4499-509
Solutions and buffers used to run the BBA are described below. • 1. 0.04M carbonate-bicarbonate buffer (coating buffer) • 2. […] 1 mg of (Man)-3-BSA in 25 mL of water. • 3. 4000 ng/mL BSA • 4. 40 ng/mL BSA • 5. 1 μg/mL BSA-(Man)3: 150 μL of 40 ng/mL BSA-(Man)3+5.85 mL of 40 ng/mL BSA • 6. 0.5 μg/mL BSA-(Man)3 in 0.02M carbonate-bicarbonate buffer. • 7. 20 ng/mL BSA in 0.02M carbonate-bicarbonate buffer • 8. Blocking buffer (2% BSA/DPBS): 1 g of BSA in 50 mL D-PBS • 9. 2× binding buffer (0.2% BSA/D-PBS): 5 mL of blocking buffer+45 mL D-PBS. • 10. Washing buffer (D-PBS/0.01% Tween 20): 10 μL of Tween 20 in 100 mL D-PBS. • 11. 1× Bright-Glo Luciferase substrate:Dilute 1:1 the Bright-Glo Luciferase Assay System with D-PBS The experimental protocol to run the BBA is described below.
Overnight culture of LF82/Luciferase strain: Into two Falcon 50 mL tubes, add 20 mL of LB+20 μL of 50 mg/mL Kanamycin and inoculate with a loop from glycerol stock of the LF82/Luciferase strain. Incubate overnight at 37° C. with no shaking.
Glycoprotein coating of 96-well plates: Add 100 μL/well of 0.5-2 μg/mL BSA-(Man)3. 20 μg/mL BSA is used as the control background. Seal plate using an adhesive sealing film and incubate overnight at room temperature. Wash the 96-well plate three times with 150 μL/well of D-PBS, add 170 μL/well of blocking solution and incubate 45 min (minimum) at room temperature.
Preparation of bacterial suspension: Mix the two cultures tubes (40 mL) and perform a 1:10 dilution in LB (900 μl LB+100 μl culture. Measure optical density (OD) of the bacterial cultures. OD1 ˜5×10^8 cells/mL. Centrifuge LF82 culture for 20 min at 3500 rpm at room temperature. Re-suspend bacterial pellet in D-PBS and centrifuge again for 20 min at 3500 rpm. Re-suspend bacterial pellet in D-PBS to obtain a bacterial concentration of 2×10^9 bacteria/mL. Dilute 1/10 in D-PBS to obtain a final bacterial concentration of 2×10^8 bacteria/mL (=107 bacteria/50 μL). Perform 1/10 serial dilutions in LB of each bacterial suspension, plate 10 μL of dilutions on LB agar plates (final dilutions of 10^−7) and incubate overnight at 37° C. and count CFUs to determine the actual bacteria density in the assay.
Bacterial binding assay: Add 147 μL 2× binding buffer to compound plate (containing 3 μL of compound). After blocking step is performed (at least 45 min), wash plates three times with 200 μL/well of D-PBS. With a 100 μL multichannel manual pipettor, add 50 μL/well of compound diluted in 2× binding buffer. With a 100 μL multichannel manual pipettor, add 50 μL/well of bacterial suspension. Agitate at slow speed for 1 min and incubate 40-75 min at room temperature. Wash 5 times with 150 μL/well of washing buffer and then once with D-PBS. Add 100 μL/well of 1× Bright-Glo Luciferase substrate. […]
Regarding `Cc1cc(-c2cccc(C(=O)N[C@@H](CO)C(=O)O)c2)ccc1O[C@H]1O[C@H](CO)[C@@H](O)[C@H](O)[C@]1(C)O` [Compound 69], the IC50 was 30 ± 12 nM.

Consider `Cc1cc(-c2cccc(C(=O)N3CCCC3)c2)ccc1O[C@H]1O[C@H](CO)[C@@H](O)[C@H](O)[C@]1(C)O` [Compound 70], for which the IC50 amounted to 30 ± 1 nM.

On to `Cc1cc(-c2cccc(C(=O)N(CCO)C(CO)(CO)CO)c2)ccc1O[C@H]1O[C@H](CO)[C@@H](O)[C@H](O)[C@]1(C)O` [Compound 71], for which the half-maximal inhibitory concentration (IC50) came out at 8 ± 2 nM.

For the compound `Cc1cc(-c2cccc(C(=O)N[C@@H](CO)[C@@H](C)O)c2)ccc1O[C@H]1O[C@H](CO)[C@@H](O)[C@H](O)[C@]1(C)O` [Compound 72], the IC50 is 36 ± 9 nM.

Turning to `CNC(=O)c1cc(F)cc(-c2ccc(O[C@H]3O[C@H](CO)[C@@H](O)[C@H](O)[C@]3(C)O)c(C)c2)c1` [Compound 73], the IC50 worked out at 16 ± 5 nM.

Take `Cc1cc(-c2ccc(F)cc2)ccc1O[C@H]1O[C@H](CO)[C@@H](O)[C@H](O)[C@]1(C)O` [Compound 74]: the half-maximal inhibitory concentration (IC50) was found to be 180 ± 40 nM.

On to `Cc1cc(-c2ccc(F)cc2F)ccc1O[C@H]1O[C@H](CO)[C@@H](O)[C@H](O)[C@]1(C)O` [Compound 75], for which the IC50 was 38 ± 18 nM.

On to `Cc1cc(-c2cc(F)cc(F)c2)ccc1O[C@H]1O[C@H](CO)[C@@H](O)[C@H](O)[C@]1(C)O` [Compound 76], for which the IC50 worked out at 24 ± 3 nM.

Turning to `Cc1cc(-c2cc(Cl)ccc2F)ccc1O[C@H]1O[C@H](CO)[C@@H](O)[C@H](O)[C@]1(C)O` [Compound 77], the 50% inhibitory concentration (IC50) stood at 150 nM.

Turning to `Cc1cc(-c2cc(F)cc(Cl)c2)ccc1O[C@H]1O[C@H](CO)[C@@H](O)[C@H](O)[C@]1(C)O` [Compound 78], the IC50 came to 94 ± 6 nM.

As for `COc1ccc(C#N)cc1-c1ccc(O[C@H]2O[C@H](CO)[C@@H](O)[C@H](O)[C@]2(C)O)c(C)c1` [Compound 79], the half-maximal inhibitory concentration (IC50) worked out at 20 ± 5 nM.

For the compound `COc1cc(Cl)cc(-c2ccc(O[C@H]3O[C@H](CO)[C@@H](O)[C@H](O)[C@]3(C)O)c(C)c2)c1` [Compound 80], the IC50 turned out to be 55 ± 15 nM.

In the case of `COc1cc(Cl)ccc1-c1ccc(O[C@H]2O[C@H](CO)[C@@H](O)[C@H](O)[C@]2(C)O)c(C)c1` [Compound 81], the half-inhibitory concentration (IC50) worked out at 185 ± 15 nM.

With `Cc1cc(-c2ccc(Cl)c(Cl)c2)ccc1O[C@H]1O[C@H](CO)[C@@H](O)[C@H](O)[C@]1(C)O` [Compound 82], the 50% inhibitory concentration (IC50) worked out at 110 ± 31 nM.

For the compound `Cc1cc(-c2cccc(C(=O)N(C)C)c2)ccc1O[C@H]1O[C@H](CO)[C@@H](O)[C@H](O)[C@]1(C)O` [Compound 83], the 50% inhibitory concentration (IC50) worked out at 19 ± 6 nM.

In the case of `Cc1cc(-c2cccc(S(N)(=O)=O)c2)ccc1O[C@H]1O[C@H](CO)[C@@H](O)[C@H](O)[C@]1(C)O` [Compound 84], the IC50 worked out at 10 ± 2 nM.

Consider `Cc1cc(-c2ccc(F)c(C(=O)N3CCCC3)c2)ccc1O[C@H]1O[C@H](CO)[C@@H](O)[C@H](O)[C@]1(C)O` [Compound 85], for which the IC50 turned out to be 30 ± 8 nM.

Take `Cc1cc(-c2cccc(S(=O)(=O)NC(C)(C)C)c2)ccc1O[C@H]1O[C@H](CO)[C@@H](O)[C@H](O)[C@]1(C)O` [Compound 86]: the 50% inhibitory concentration (IC50) came to 26 ± 8 nM.

With `Cc1cc(-c2ccc(O[C@H]3O[C@H](CO)[C@@H](O)[C@H](O)[C@]3(C)O)c(C)c2)ccc1F` [Compound 87], the IC50 came out at 87 ± 33 nM.

For `Cc1cc(-c2ccc(F)c(F)c2)ccc1O[C@H]1O[C@H](CO)[C@@H](O)[C@H](O)[C@]1(C)O` [Compound 88], the concentration for half-maximal inhibition (IC50) stood at 2950 ± 150 nM.

In the case of `Cc1cc(-c2ccc3cc[nH]c3c2)ccc1O[C@H]1O[C@H](CO)[C@@H](O)[C@H](O)[C@]1(C)O` [Compound 89], the 50% inhibitory concentration (IC50) was 455 ± 95 nM.

In the case of `COc1c(F)cccc1-c1ccc(O[C@H]2O[C@H](CO)[C@@H](O)[C@H](O)[C@]2(C)O)c(C)c1` [Compound 90], the IC50 was found to be 83 ± 3 nM.

As for `COc1cc(F)ccc1-c1ccc(O[C@H]2O[C@H](CO)[C@@H](O)[C@H](O)[C@]2(C)O)c(C)c1` [Compound 91], the IC50 was 92 ± 27 nM.

Turning to `Cc1cc(-c2ccc(F)c(Cl)c2)ccc1O[C@H]1O[C@H](CO)[C@@H](O)[C@H](O)[C@]1(C)O` [Compound 92], the IC50 worked out at 82 ± 15 nM.

As for `Cc1cc(-c2cccc(Cl)c2F)ccc1O[C@H]1O[C@H](CO)[C@@H](O)[C@H](O)[C@]1(C)O` [Compound 93], the concentration for half-maximal inhibition (IC50) is 215 ± 5 nM.

Consider `COc1cc(OC)cc(-c2ccc(O[C@H]3O[C@H](CO)[C@@H](O)[C@H](O)[C@]3(C)O)c(C)c2)c1` [Compound 94], for which the IC50 worked out at 16 ± 6 nM.

As for `COc1ccc(OC)c(-c2ccc(O[C@H]3O[C@H](CO)[C@@H](O)[C@H](O)[C@]3(C)O)c(C)c2)c1` [Compound 95], the half-maximal inhibitory concentration (IC50) was 24 ± 12 nM.

As to `COc1ccc(-c2ccc(O[C@H]3O[C@H](CO)[C@@H](O)[C@H](O)[C@]3(C)O)c(C)c2)cc1Cl` [Compound 96], the concentration for half-maximal inhibition (IC50) came out at 20 ± 9 nM.

As to `COc1ccc(Cl)cc1-c1ccc(O[C@H]2O[C@H](CO)[C@@H](O)[C@H](O)[C@]2(C)O)c(C)c1` [Compound 97], the IC50 is 110 ± 20 nM.

`COc1c(F)cc(-c2ccc(O[C@H]3O[C@H](CO)[C@@H](O)[C@H](O)[C@]3(C)O)c(C)c2)cc1F` [Compound 98]: the half-maximal inhibitory concentration (IC50) stood at 16 ± 7 nM.

As to `COc1c(F)cc(F)cc1-c1ccc(O[C@H]2O[C@H](CO)[C@@H](O)[C@H](O)[C@]2(C)O)c(C)c1` [Compound 99], the half-maximal inhibitory concentration (IC50) is 38 ± 8 nM.

With `COc1cc(Cl)c(Cl)cc1-c1ccc(O[C@H]2O[C@H](CO)[C@@H](O)[C@H](O)[C@]2(C)O)c(C)c1` [Compound 100], the IC50 worked out at 155 ± 25 nM.

For the compound `Cc1cc(-c2cc(C#N)ccc2C)ccc1O[C@H]1O[C@H](CO)[C@@H](O)[C@H](O)[C@]1(C)O` [Compound 101], the IC50 stood at 1180 ± 215 nM.

Take `Cc1cc(-c2ccc(F)c(C(=O)N3CCOCC3)c2)ccc1O[C@H]1O[C@H](CO)[C@@H](O)[C@H](O)[C@]1(C)O` [Compound 102]: the half-inhibitory concentration (IC50) turned out to be 24 ± 5 nM.

Take `Cc1cc(-c2cc(F)cc(C(=O)N3CCOCC3)c2)ccc1O[C@H]1O[C@H](CO)[C@@H](O)[C@H](O)[C@]1(C)O` [Compound 103]: the half-inhibitory concentration (IC50) stood at 18 ± 8 nM.

As to `Cc1cc(-c2ccc(O[C@H]3O[C@H](CO)[C@@H](O)[C@H](O)[C@]3(C)O)c(C)c2)ccc1O` [Compound 104], the half-inhibitory concentration (IC50) amounted to 69 ± 23 nM.

With `Cc1cc(-c2ccc(O[C@H]3O[C@H](CO)[C@@H](O)[C@H](O)[C@]3(C)O)c(C)c2)ccc1O[C@H]1O[C@H](CO)[C@@H](O)[C@H](O)[C@]1(C)O` [Compound 105, (2R,3S,4S,5S,6R)-6-(hydroxymethyl)-3-methyl-2-[2-methyl-4-[3-methyl-4-[(2R,3S,4S,5S,6R)-3,4,5-trihydroxy-6-(hydroxymethyl)-3-methyl-tetrahydropyran-2-yl]oxy-phenyl]phenoxy]tetrahydropyran-3,4,5-triol], the IC50 was 6 ± 2 nM.

As for `CNC(=O)c1cccc(-c2ccc(O[C@H]3O[C@H](CO)[C@@H](O)[C@H](O)[C@]3(C)O)cc2)c1` [Example 14, N-methyl-3-[4-[(2R,3S,4S,5S,6R)-3,4,5-trihydroxy-6-(hydroxymethyl)-3-methyl-tetrahydropyran-2-yl]oxyphenyl]benzamide], the IC50 was determined as 132 ± 44 nM.
